From patent publication US20260224658A1, “PRODUCTS AND METHODS FOR THE DIAGNOSIS AND TREATMENT OF P[…]” (priority 2023, published 2026)
Values after ≈ are worked out from the molar mass of the structure shown.

How the values were obtained:
Format in all cases: cell-based, Pseudomonas aeruginosa
PAO1 = experiment: microbe, parasite or virus in culture; settings: strain PAO1; for MIC: Pseudomonas aeruginosa, read-out: MIC, average of triplicates
Description: (§1) MIC experiments were performed using biological triplicates.

MPAO1 [1] = experiment: microbe, parasite or virus in culture; settings: strain MPAO1; for MIC: Pseudomonas aeruginosa, read-out: MIC, average of triplicates
Description: as §1

MPAO1-ΔmutS [2] = experiment: In vitro adaptive evolution (serial passaging) with MIC determination; settings: for MIC: Pseudomonas aeruginosa
Description: (§2) MICs were determined via microbroth dilution assay in 96-well culture plates with 2-fold serial dilutions of tested antibiotic in Mueller-Hinton (cation-adjusted) broth, inoculated with 50 μL of 2.75×10^5 CFU/mL of each bacterial strain and incubated at 37° C., 200 rpm for 24 hours. MIC experiments were performed using biological triplicates.
(§3) Serial passaging of bacterial strains was performed in 96-well culture plates with 2-fold serial dilutions of antibiotic in MH broth, inoculated with 50 μL 2.75×10^5 CFU/mL of each strain and incubated at 37° C., 200 rpm for 24 hours. […] The bacteria were then serially passaged in the same antibiotic and MIC determined for all antibiotics (aztreonam, ciprofloxacin, D-CONGA, D-CONGA-Q7, polymyxin B). See Antimicrobial susceptibility testing section. The bacteria were serially passaged a total of 10 times.
(§4) All resistance acquisition data was analyzed in units of fold-change to normalize for differences in starting MIC across strains. Fold-change in MIC data for all strains and treatment groups was natural log-transformed and simple linear regression was performed considering each replicate fold-change value as an individual point. Slope, standard error of slope, and total number of values of each treatment group of interest were analyzed via unpaired t-test (ΔmutS vs WT) or ordinary one-way ANOVA (cross-resistance acquisition of ΔmutS+AB vs −AB vs WT), and α-values were corrected for multiple comparisons using the Bonferroni method. Differences in estimated mutation rate across treatment groups were determined via ordinary one-way ANOVA (Brown-Forsythe test). For all statistical tests, p<0.05 was considered significant. All figures were created and statistical tests were done using GraphPad Prism 9.3.1.

MPAO1-ΔmutL [3] = experiment: as above; settings: for MIC: Pseudomonas aeruginosa
Description: as §2, §3, §4

MPAO1 [4] = experiment: as above; settings: for MIC: Pseudomonas aeruginosa
Description: as §2, §3, §4

MPAO1-ΔmutS [5] = experiment: MIC, microbroth dilution assay; settings: for MIC: Pseudomonas aeruginosa, read-out: MIC, average of triplicates
Description: as §1

MPAO1-ΔmutL [6] = experiment: MIC, microbroth dilution assay; settings: for MIC: Pseudomonas aeruginosa, read-out: MIC, average of triplicates
Description: as §1

[7] = read-out: Average MIC at end point, MPAO1-ΔmutS evolved in AZ
[8] = read-out: Average MIC at end point, MPAO1-ΔmutS evolved in AZ + COL
[9] = read-out: Average MIC at end point, MPAO1-ΔmutS evolved in AZ + D-CONGA
[10] = read-out: Average MIC at end point, MPAO1-ΔmutS evolved in AZ + D-CONGA-Q7
[11] = read-out: Average MIC at end point, MPAO1-ΔmutS evolved in Chl
[12] = read-out: Average MIC at end point, MPAO1 evolved in AZ
[13] = read-out: Average MIC at end point, MPAO1 evolved in AZ + COL
[14] = read-out: Average MIC at end point, MPAO1 evolved in AZ + D-CONGA
[15] = read-out: Average MIC at end point, MPAO1 evolved in AZ + D-CONGA-Q7
[16] = read-out: Average MIC at end point, MPAO1 evolved in Chl + Str
[17] = read-out: Average MIC at end point, MPAO1 evolved in D-CONGA
[18] = read-out: Average MIC at end point, MPAO1 evolved in D-CONGA-Q7
[19] = read-out: Average MIC at end point, MPAO1 passaged with No Antibiotic (Table 4)
[20] = read-out: Average MIC at end point, MPAO1 passaged with No Antibiotic (Table 8)
[21] = MPAO1-ΔmutS evolved in AZ + COL
[22] = MPAO1-ΔmutS evolved in AZ + D-CONGA
[23] = MPAO1-ΔmutS evolved in AZ + D-CONGA-Q7
[24] = MPAO1-ΔmutS evolved in D-CONGA-Q7
[25] = MPAO1-ΔmutS passaged with No Antibiotic (Table 4)
[26] = MPAO1-ΔmutS passaged with No Antibiotic (Table 8)
[27] = MPAO1-ΔmutL evolved in Chl + Str
[28] = MPAO1-ΔmutL passaged with No Antibiotic
[29] = MPAO1 evolved in AZ + D-CONGA-Q7
[30] = MPAO1 passaged with No Antibiotic (Table 4)
[31] = MPAO1 passaged with No Antibiotic (Table 8)

## C[C@H]1[C@H](NC(=O)/C(=N\OC(C)(C)C(=O)O)c2csc(N)n2)C(=O)N1S(=O)(=O)O [Aztreonam]
PAO1
  MIC: 3 µg/mL (≈ 6.89 µM)
MPAO1 [1]
  MIC: 2 µg/mL (≈ 4.59 µM)
MPAO1-ΔmutS [2]; [7]
  MIC: 107 µg/mL (≈ 246 µM)
MPAO1-ΔmutS [2]; [8]
  MIC: 16 µg/mL
MPAO1-ΔmutS [2]; [9]
  MIC: 18 µg/mL
MPAO1-ΔmutS [2]; [10]
  MIC: 16 µg/mL
MPAO1-ΔmutS [2]; [11]
  MIC: 32 µg/mL (≈ 73.5 µM)
MPAO1-ΔmutS [2]; read-out: Average MIC at end point, MPAO1-ΔmutS evolved in D-CONGA
  MIC: 16 µg/mL (≈ 36.7 µM)
MPAO1-ΔmutS [2]; read-out: Average MIC at end point, MPAO1-ΔmutS evolved in D-CONGA-Q7
  MIC: 4 µg/mL (≈ 9.19 µM)
MPAO1-ΔmutS [2]; read-out: Average MIC at end point, MPAO1-ΔmutS passaged with No Antibiotic (Table 4)
  MIC: 8 µg/mL (≈ 18.4 µM)
MPAO1-ΔmutS [2]; read-out: Average MIC at end point, MPAO1-ΔmutS passaged with No Antibiotic (Table 8)
  MIC: 5 µg/mL (≈ 11.5 µM)
MPAO1-ΔmutL [3]; read-out: Average MIC at end point, MPAO1-ΔmutL evolved in Chl + Str
  MIC: 32 µg/mL
MPAO1-ΔmutL [3]; read-out: Average MIC at end point, MPAO1-ΔmutL passaged with No Antibiotic
  MIC: 11 µg/mL (≈ 25.3 µM)
MPAO1 [4]; [12]
  MIC: 8 µg/mL (≈ 18.4 µM)
MPAO1 [4]; [13]
  MIC: 19 µg/mL
MPAO1 [4]; [14]
  MIC: 11 µg/mL
MPAO1 [4]; [15]
  MIC: 4 µg/mL
MPAO1 [4]; [16]
  MIC: 3 µg/mL
MPAO1 [4]; [17]
  MIC: 7 µg/mL (≈ 16.1 µM)
MPAO1 [4]; [18]
  MIC: 7 µg/mL (≈ 16.1 µM)
MPAO1 [4]; [19]
  MIC: 3 µg/mL (≈ 6.89 µM)
MPAO1 [4]; [20]
  MIC: 4 µg/mL (≈ 9.19 µM)
MPAO1-ΔmutS [5]
  MIC: 13 µg/mL (≈ 29.9 µM)
MPAO1-ΔmutL [6]
  MIC: 30 µg/mL (≈ 68.9 µM)

## O=C(N[C@H](CO)[C@H](O)c1ccc([N+](=O)[O-])cc1)C(Cl)Cl [Chloramphenicol]
PAO1
  MIC: 400 µg/mL (≈ 1240 µM)
MPAO1 [1]
  MIC: ≥ 400 µg/mL
MPAO1-ΔmutS [2]; MPAO1-ΔmutS evolved in the named drug
  cross-resistance to antibiotics induced by treatment: induced cross-resistance to antibiotics in a different class such as ciprofloxacin
MPAO1 [4]; antibiotic-treated wild type MPAO1
  cross-resistance induced by treatment: no cross resistance developed
MPAO1-ΔmutS [5]
  MIC: ≥ 400 µg/mL
MPAO1-ΔmutS [5]; wild type and mutS-deficient MPAO1
  susceptibility of the strains before evolution (summary of Table 3): anticipated intrinsic resistance
MPAO1-ΔmutL [6]
  MIC: 400 µg/mL (≈ 1240 µM)

## O=C(O)c1cn(C2CC2)c2cc(N3CCNCC3)c(F)cc2c1=O [Ciprofloxacin]
PAO1
  MIC: 0.25 µg/mL (≈ 0.754 µM)
MPAO1 [1]
  MIC: 0.5 µg/mL (≈ 1.51 µM)
MPAO1-ΔmutS [2]; [7]
  MIC: 4 µg/mL (≈ 12.1 µM)
MPAO1-ΔmutS [2]; [8]
  MIC: 2 µg/mL
MPAO1-ΔmutS [2]; [9]
  MIC: 0.8 µg/mL
MPAO1-ΔmutS [2]; [10]
  MIC: 0.7 µg/mL
MPAO1-ΔmutS [2]; [11]
  MIC: 8 µg/mL (≈ 24.1 µM)
MPAO1 [4]; [12]
  MIC: 0.25 µg/mL (≈ 0.754 µM)
MPAO1 [4]; [13]
  MIC: 2 µg/mL
MPAO1 [4]; [14]
  MIC: 0.7 µg/mL
MPAO1 [4]; [15]
  MIC: 0.8 µg/mL
MPAO1 [4]; read-out: Average MIC at end point, MPAO1 evolved in COL
  MIC: 2 µg/mL (≈ 6.04 µM)
MPAO1 [4]; read-out: Average MIC at end point, MPAO1 evolved in Chl
  MIC: 1 µg/mL (≈ 3.02 µM)
MPAO1 [4]; [16]
  MIC: 2 µg/mL
MPAO1 [4]; [17]
  MIC: 1 µg/mL (≈ 3.02 µM)
MPAO1 [4]; [18]
  MIC: 0.75 µg/mL (≈ 2.26 µM)
MPAO1 [4]; [19]
  MIC: 2 µg/mL (≈ 6.04 µM)
MPAO1 [4]; [20]
  MIC: 0.8 µg/mL (≈ 2.41 µM)
MPAO1-ΔmutS [5]
  MIC: 1 µg/mL (≈ 3.02 µM)
MPAO1-ΔmutL [6]
  MIC: 0.3 µg/mL (≈ 0.905 µM)

## [H]/N=C(/N)N[C@H]1[C@H](O)[C@@H](O)[C@H](O[C@@H]2O[C@@H](C)[C@](O)(C=O)[C@H]2O[C@@H]2O[C@@H](CO)[C@H](O)[C@@H](O)[C@@H]2NC)[C@@H](N/C(N)=N\[H])[C@@H]1O [Streptomycin]
PAO1
  MIC: 21 µg/mL (≈ 36.1 µM)
MPAO1 [1]
  MIC: 8 µg/mL (≈ 13.8 µM)
MPAO1-ΔmutS [5]
  MIC: 32 µg/mL (≈ 55 µM)
MPAO1-ΔmutL [6]
  MIC: 43 µg/mL (≈ 73.9 µM)

## Polymyxin B
PAO1
  MIC, average of triplicates: 2 µg/mL
MPAO1 [1]
  MIC, average of triplicates: 2 µg/mL
MPAO1-ΔmutS [2]; MPAO1-ΔmutS evolved in AZ
  Average MIC at end point: 2 µg/mL
  fold-change relative to starting MIC before treatment: 1
MPAO1-ΔmutS [2]; [21]
  Average MIC at end point: 2 µg/mL
  fold-change relative to starting MIC before treatment: 1
MPAO1-ΔmutS [2]; [22]
  Average MIC at end point: 2 µg/mL
  fold-change relative to starting MIC before treatment: 1
MPAO1-ΔmutS [2]; [23]
  Average MIC at end point: 2 µg/mL
  fold-change relative to starting MIC before treatment: 1
MPAO1-ΔmutS [2]; MPAO1-ΔmutS evolved in COL
  Average MIC at end point: 27 µg/mL
  fold-change relative to starting MIC before treatment: 8
MPAO1-ΔmutS [2]; MPAO1-ΔmutS evolved in Chl
  Average MIC at end point: 2 µg/mL
  fold-change relative to starting MIC before treatment: 1
MPAO1-ΔmutS [2]; MPAO1-ΔmutS evolved in D-CONGA
  Average MIC at end point: 3 µg/mL
  fold-change relative to starting MIC before treatment: 1.33
MPAO1-ΔmutS [2]; [24]
  Average MIC at end point: 4 µg/mL
  fold-change relative to starting MIC before treatment: 2
MPAO1-ΔmutS [2]; [25]
  Average MIC at end point: 2 µg/mL
  fold-change relative to starting MIC before treatment: 1
MPAO1-ΔmutS [2]; [26]
  Average MIC at end point: 2 µg/mL
  fold-change relative to starting MIC before treatment: 1
MPAO1-ΔmutL [3]; [27]
  Average MIC at end point: 0.5 µg/mL
  fold-change relative to starting MIC before treatment: 0.25
MPAO1-ΔmutL [3]; [28]
  Average MIC at end point: 2 µg/mL
  fold-change relative to starting MIC before treatment: 0.6
MPAO1 [4]; MPAO1 evolved in AZ
  Average MIC at end point: 3 µg/mL
  fold-change relative to starting MIC before treatment: 1.3
MPAO1 [4]; MPAO1 evolved in AZ + COL
  Average MIC at end point: 2 µg/mL
  fold-change relative to starting MIC before treatment: 1
MPAO1 [4]; MPAO1 evolved in AZ + D-CONGA
  Average MIC at end point: 2 µg/mL
  fold-change relative to starting MIC before treatment: 1
MPAO1 [4]; [29]
  Average MIC at end point: 2 µg/mL
  fold-change relative to starting MIC before treatment: 1
MPAO1 [4]; MPAO1 evolved in COL
  Average MIC at end point: 2 µg/mL
  fold-change relative to starting MIC before treatment: 1
MPAO1 [4]; MPAO1 evolved in Chl
  Average MIC at end point: 2 µg/mL
  fold-change relative to starting MIC before treatment: 1
MPAO1 [4]; MPAO1 evolved in D-CONGA
  Average MIC at end point: 4 µg/mL
  fold-change relative to starting MIC before treatment: 2.4
MPAO1 [4]; MPAO1 evolved in D-CONGA-Q7
  Average MIC at end point: 2 µg/mL
  fold-change relative to starting MIC before treatment: 1
MPAO1 [4]; [30]
  Average MIC at end point: 1 (1) μg/mL
  fold-change relative to starting MIC before treatment: 1 (1)
MPAO1 [4]; [31]
  Average MIC at end point: 2 µg/mL
  fold-change relative to starting MIC before treatment: 1
MPAO1-ΔmutS [5]; strain ΔmutS
  MIC, average of triplicates: 2 µg/mL
MPAO1-ΔmutL [6]; strain ΔmutL
  MIC, average of triplicates: 3 µg/mL
